These results are taken from US20250346582A1, “SPLEEN TYROSINE KINASE INHIBITORS AND METHODS OF USE THEREOF” (THE BOARD OF TRUSTEES OF THE UNIVERSITY OF ILLINOIS, priority 2022, published 2025).

The subject of test [1] is plasma membrane translocation of EGFP-Syk WT. Nature of the test: Subcellular localization of EGFP-Syk WT in DT40 cells. Format: cell-based, chicken. The following applies: IgM stimulation. As to the method: DT40-Syk^−/− cells transfected with EGFP-Syk WT (or K220/K222A) and mCherry-mCherry-eMyoX-tPH were imaged under 100× magnification with a Nikon Eclipse Ti2 microscope using the NIS element software. For IgM stimulation, cells were dropped on the IgM-coated surface (10 ng/ml) covered with the imaging buffer (HBSS pH 7.4, 2 mM MgCl2, 1% FBS) and incubated for 10 min before imaging. Pearson's correlation coefficient (y) was calculated using Coloc 2, which is a Fiji's plugin for colocalization analysis. The plasma membrane was selected as the region of interest for calculation of the coefficient. Averages ±s.d.'s of γ values were calculated from triplicate determinations.

Test [2] has as its target T1, PLCγ2-cSH2 (Homo sapiens, UniProt P16885).
T1 construct: polyhistidine (N); made in house; host or cells: Escherichia coli BL21 (DE3) pLysS
T1 sequence (P16885 646-735 limits assumed): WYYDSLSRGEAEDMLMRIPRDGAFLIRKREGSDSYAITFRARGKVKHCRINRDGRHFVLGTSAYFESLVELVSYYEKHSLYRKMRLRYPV
Nature of the test: Fluorescence quenching vesicle binding assay, PLCγ2-cSH2. The following applies: Table 2; PLCγ2-cSH2 binding to POPC/POPS/PIP3/dabsyl-PE vesicles; read-out: Imax (%). As to the method: (§1) The membrane-binding assay is based on fluorescence quenching of EGFP fused to a SH2 domain by a dark quencher containing lipid, dabsyl-PE, incorporated in lipid vesicles. The plate reader assay was performed using the Synergy™ Neo spectrofluorometer at 25° C. Nontreated black polystyrene 96-well plates (Corning) were used. Protein (10-50 nM) with the increasing concentration of vesicles with a given lipid composition in 20 mM Tris buffer, pH 7.4, containing 0.16 M NaCl was added to each row of wells and the EGFP fluorescence emission at 516 nm was measured with excitation set at 485 nm. Z′ factor for the assay system was determined as described^74. Imax and IC50 values of inhibitors were determined using the equation, I=Imax/(1+IC50/[I]) where I and [I] indicate % inhibition and inhibitor concentration, respectively. The average and standard deviation values were obtained from triplicate determinations.
(§2) We also optimized a recently developed fluorescence quenching-based lipid-binding assay^47 for high-throughput screening of these molecules for their inhibitory activity against the PIP3-SH2 interaction. Specifically, we expressed SH2 domains as EGFP-tagged proteins and directly quantified their membrane binding by monitoring the quenching of EGFP fluorescence emission intensity by a dark quencher-containing lipid, N-dimethylaminoazo-benzenesulfonyl-phosphatidylethanolamine (dabsyl-PE), incorporated in the vesicles. We then screened for compounds that inhibited binding of Syk-cSH2, BLNK-SH2, and PLCγ2-cSH2, respectively, to 1-palmitoyl-2-oleoyl-PC (POPC)/1-palmitoyl-2-oleoyl-PS (POPS)/PIP3/dabsyl-PE (67:20:3:10) vesicles while eliminating those that inhibit their non-specific binding to anionic POPC/POPS/dabsyl-PE (70:20:10) vesicles. The quality of the screening system was evaluated using 1% dimethylsulfoxide (DMSO) and 20 μM D-myo-inositol-1,3,4,5-tetraphosphate (IP4) as negative and positive controls, respectively. The clear separation of positive and negative control data and the average Z′-factor of 0.7 supported the robustness of our system for high-throughput screen of PIP3-SH2 interaction inhibitors.

Test [3] deals with T2, BLNK-SH2 (Homo sapiens, UniProt Q8WV28).
T2 construct: All SH2 domain constructs were cloned into the pRSET-B vector; polyhistidine (N); made in house; host or cells: Escherichia coli BL21 (DE3) pLysS
T2 sequence (Q8WV28 346-453 limits assumed): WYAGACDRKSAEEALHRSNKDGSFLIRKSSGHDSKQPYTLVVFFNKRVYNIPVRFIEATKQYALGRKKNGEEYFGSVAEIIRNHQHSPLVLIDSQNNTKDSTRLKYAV
The test is described as follows: Fluorescence quenching vesicle binding assay, BLNK-SH2. The settings on record: Table 2, BLNK-SH2 binding to POPC/POPS/PIP3/dabsyl-PE vesicles. As to the method: as §1, §2

Test [4] concerns BCR signaling axis (Syk-BLNK-PLCγ2). Nature of the test: Western blot of BCR signaling axis in Raji B lymphocytes. Type of test: cell-based. The following applies: Raji B cells. As to the method: (§3) Cells were seeded at a density of 3.0×10^5 cells/well prior to incubation with inhibitors. Cells were incubated with 1-5 μM of Syk inhibitors overnight and stimulated with different antibodies: IgG2 for AML cells, IgM for Raji B cells, and OKT3 (Biolegend) for Jurkat cells. The cells were lysed in NP40 lysis buffer (50 mM Tris, pH 7.5, 150 mM NaCl, 1 mM EDTA, 1% NP40, 10% glycerol, 10 mM NaF, 10 mM Na3VO4, and the protease inhibitor cocktail) at 4° C. and the cell debris was removed by centrifugation. Samples were analyzed by SDS-PAGE. Proteins were separated and transferred to Immobilon-P polyvinylidene difluoride membrane (Millipore Sigma). The membrane was blocked with 5% bovine serum albumin for 1 h and incubated overnight at 4° C. with various antibodies (1:1000 dilution for all antibodies). After the unbound antibodies were removed by washing with 0.1% Tris buffer saline with 0.1% Tween20, the membranes were incubated with the horseradish peroxidase secondary antibody (1:5000 dilution) for 1 h at room temperature. The membranes were washed three more times with 0.1% Tris buffer saline with 0.1% Tween20 to remove the unbound horseradish peroxidase secondary antibody before imaging. The chemiluminescence intensity of protein bands in the gel was analyzed and documented by the Azure 500Q Imaging System.
A general note: In western blotting, separated proteins are transferred to a membrane and probed.

Test [5] addresses T3, Syk-cSH2 (Homo sapiens, UniProt P43405).
T3 construct: polyhistidine (N); made in house; host or cells: Escherichia coli BL21 (DE3) pLysS
The test is described as follows: Fluorescence quenching vesicle binding assay, Syk-cSH2. The settings on record: Table 2; Syk-cSH2 binding to POPC/POPS/PIP3/dabsyl-PE vesicles. As to the method:
as §1, §2

Test [6] has as its target T4, Syk (Homo sapiens, UniProt P43405).
T4 construct: host or cells: MV4-11 AML cells (naive and entospletinib-resistant)
Nature of the test: Streptavidin pull down assay with WC36B in MV4-11 cells. Format: cell-based. The following applies: MV4-11 cells, 5 μM for 24 h, immunoblotting. As to the method:
(§4) Streptavidin-coated beads (Dynabeads™ M280 streptavidin beads; ThermoFisher) were washed twice with 1 ml of PBST (PBS+0.1% Tween 20) and resuspended in 100 μl of PBST. WC36B (or biotin) (10 mM) was added to 100 μl of the bead suspension and the mixture was incubated at room temperature for 15 min with gentle shaking. The mixture was then vortexed for 5 s and the tube was placed on a magnet for 1 min. After discarding the supernatant, the beads were resuspended in the same volume of the washing buffer. Washing is repeated three times to remove excess WC36B. WC36B-coated beads were then incubated with the cell lysate (MV-4-11) for 30 min at room temperature with gentle shaking. Protein-coated beads were separated with a magnet for 2-3 min and washed 4-5 times with PBS containing 0.1% BSA. The protein was then removed from the beads by boiling the beads in the SDS-polyacrylamide gel electrophoresis (PAGE) application buffer. Samples were concentrated for the mass spectrometry analysis and the western blot assay.

The target of test [7] is T4, Syk. Nature of the test: Mass spectrometry proteomics of WC36B-binding cellular proteins. Format: cell-based. The settings on record: biotin as negative control. As to the method: as §4
MS analysis was performed to identify proteins captured by WC36B and biotin. […]

The test system of test [8] is phosphorylation of ERK1/2 and STAT3/5. The test is described as follows: Western blot of phosphorylation in HL60 cells. Type of test: cell-based. The settings on record: RAS-mutated HL60 cells; 5 μM. As to the method:
FIGS. 3A-3D show the inhibition of the signaling activity and proliferation of HL-60 AML cells by Syk-cSH2 inhibitors. […] DMSO was used as a negative control and GAPDH as a gel loading control. […] (c) Inhibition of phosphorylation of Syk, STAT3/5 and ERK1/2 in patient-derived primary AML cells by WC36. Cells were cultured overnight in the presence of CD34+ cytokine supplement. DMSO was used as a negative control. Representative data from one (Patient 1) of four patient samples are shown here. (d) Inhibition of the proliferation of four patient AML cells by WC36 measured by the colony growth assay. The number of colonies after WC36 treatment was normalized to the enumerated colonies after DMSO treatment.
as §3

Test [9] addresses T5, pZAP70 (Homo sapiens, UniProt P43403).
T5 construct: host or cells: Jurkat T cells, OKT3-stimulated
T5 sequence (P43403 1-619): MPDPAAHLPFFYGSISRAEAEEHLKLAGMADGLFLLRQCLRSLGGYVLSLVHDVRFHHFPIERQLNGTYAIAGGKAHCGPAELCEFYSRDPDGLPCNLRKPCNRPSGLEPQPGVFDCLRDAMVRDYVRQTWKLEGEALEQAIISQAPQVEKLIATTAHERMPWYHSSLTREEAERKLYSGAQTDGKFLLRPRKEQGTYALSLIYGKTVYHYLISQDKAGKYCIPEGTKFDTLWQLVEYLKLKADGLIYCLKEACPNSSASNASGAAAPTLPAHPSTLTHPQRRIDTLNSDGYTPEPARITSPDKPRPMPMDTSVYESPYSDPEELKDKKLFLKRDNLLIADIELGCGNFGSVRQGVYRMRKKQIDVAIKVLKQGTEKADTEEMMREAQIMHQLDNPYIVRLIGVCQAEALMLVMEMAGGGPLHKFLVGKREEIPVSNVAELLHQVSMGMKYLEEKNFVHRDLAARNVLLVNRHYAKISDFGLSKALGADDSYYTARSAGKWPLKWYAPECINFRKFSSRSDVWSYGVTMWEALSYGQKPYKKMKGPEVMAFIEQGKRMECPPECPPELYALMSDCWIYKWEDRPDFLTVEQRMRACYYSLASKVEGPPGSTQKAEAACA
Nature of the test: Western blot inhibition of ZAP70 phosphorylation in Jurkat T cells. Type of test: cell-based. The following applies: Jurkat T cells stimulated by OKT3; 5 μM overnight. As to the method:
(a) Cellular efficacy of WC35, WC36, and WC38 was determined by dose-dependent inhibition of Syk phosphorylation in Raji B cells. (b) Imax and IC50 values were determined by non-linear least-squares analysis of data using the equation: […] Each data represents average ±s.d. from triplicate measurements. […] Jurkat T cells were stimulated by OKT3. Cells were seeded at a density of 3.0×10^5 cells/well prior to incubation with inhibitors. […] IgG2 for AML cells, IgM for Raji B cells, and OKT3 (Biolegend) for Jurkat cells. […] Samples were analyzed by SDS-PAGE. Proteins were separated and transferred to Immobilon-P polyvinylidene difluoride membrane (Millipore Sigma). […] The chemiluminescence intensity of protein bands in the gel was analyzed and documented by the Azure […] Imaging System.

The test system of test [10] is phosphorylation of Syk, ERK1/2 and STAT3/5. The test is described as follows: Western blot of phosphorylation in entospletinib-resistant MV4-11 cells. Format: cell-based. The settings on record: 5 μM. As to the method:
as §3
(§5) Then the concentration was maintained at 5 μM.

For test [11], the system named is MV4-11 cells. Nature of the test: Generation of drug-resistant MV4-11 cells under chronic treatment. The settings on record: inhibitor increased from 0.5 to 5 μM over 10 weeks. Format: cell-based. As to the method: as §5

Consider `CS(=O)(=O)N1CCN(Cc2cc3nc(-c4cccc5[nH]ncc45)nc(N4CCOCC4)c3s2)CC1` [GDC-0941], for which the “plasma membrane translocation of EGFP-Syk WT” value in [1] was “greatly suppressed”.
Take `OCCc1c(Cl)cncc1I` [VG594]: the Emax in [2] was less than 10%; in test [3] (read-out: Imax (%)), 40 to 50%. Also, the IC50 (usually the concentration at which inhibition is half-maximal) in test [3] was determined as 400 ± 30 nM. Also, the “effect on phosphorylation of BCR signaling proteins (Syk, BLNK, PLCγ2)” value in [4] was “blocked the phosphorylation of BLNK and PLCγ2 without a significant effect on Syk phosphorylation”. Besides, the “Imax (%)” value in test [5] is given as less than 10%.
Consider `[N-]=[N+]=C(C(=O)NCCNC(=O)CCCC[C@H]1SC[C@H]2NC(=O)N[C@H]21)C(Nc1ncccn1)c1c[nH]c2ccccc12` (stereo partly drawn) [WC36B, N-(2-(2-diazo-3-(1H-indol-3-yl)-3-(pyrimidin-2-ylamino)propanamido)ethyl)-5-((3aR,4R,6aS)-2-oxohexahydro-1H-thieno[3,4d]imidazol-4-yl)pentanamide], for which, in [6], the “capture of Syk by streptavidin pulldown” value was “targets Syk in MV4-11 cells”. Besides, in test [7], the “proteins captured (proteomics)” value is reported as “Syk is the single major protein that is captured by the WC36 pharmacophore”.
For the compound `c1cn2cc(-c3ccc4cn[nH]c4c3)nc(Nc3ccc(N4CCOCC4)cc3)c2n1` [entospletinib, reference compound], the “inhibition of phosphorylation of ERK1/2 and STAT3/5” value in test [8] was “could not suppress phosphorylation of ERK1/2 and STAT3/5”. Besides, the “inhibition of ZAP-70 phosphorylation” value in test [9] is “significantly inhibited ZAP-70 phosphorylation”. The “inhibition of phosphorylation of Syk, ERK1/2 and STAT3/5” value in test [10] is “could not inhibit phosphorylation of ERK1/2 and STAT3/5 in resistant MV4-11 cells while still potently inhibiting Syk phosphorylation”. In addition, the “development of acquired resistance” value in test [11] is reported as “readily developing resistance to entospletinib”.
